# Data published in the supplement of paper PMC10307832.
# Columns and labels:
# Experiment in all cases: relative viability (nuclei count vs DMSO), 5 days (fraction); higher = more cells survive
# [1] = system: LK-2
# Method in brief: (§1)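 Medians of duplicate plates are given as relative viability. That measure is the nuclei count in treated wells divided by the count in vehicle wells. Counts were taken on 4× images of lung cancer cell lines in 1536-well plates, 5 days after pin-tool dosing the day after seeding with one drug alone or a fixed anchor-drug dose plus five library-drug doses (not always all listed) in √10 steps.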
# [2] = system: NCI-H727
# Method in brief: as §1
# [3] = system: BEN
# Method in brief: as §1
# [4] = system: NCI-H520
# Method in brief: as §1
# [5] = system: NCI-H322M
# Method in brief: as §1
# [6] = system: HCC-15
# Method in brief: as §1
# [7] = system: EKVX
# Method in brief: as §1
# [8] = system: ABC-1
# Method in brief: as §1
# [9] = system: HCC-44
# Method in brief: as §1
# [10] = system: EMC-BAC-2
# Method in brief: as §1
# [11] = system: CAL-12T
# Method in brief: as §1
# [12] = system: NCI-H1651
# Method in brief: as §1
# [13] = system: NCI-H2023
# Method in brief: as §1
# [14] = system: NCI-H460
# Method in brief: as §1
# [15] = system: NCI-H1563
# Method in brief: as §1
# [16] = system: NCI-H358
# Method in brief: as §1
# [17] = system: 201T
# Method in brief: as §1
# [18] = system: PC-3 [JPC-3]
# Method in brief: as §1
# [19] = system: COR-L 105
# Method in brief: as §1
# [20] = system: NCI-H838
# Method in brief: as §1
# [21] = system: LU99A
# Method in brief: as §1
smiles,measurement,setting,value
Cc1csc(=NC2CCCCC2)n1/N=C/c1ccc(O)c(O)c1O [MIM1] + Cc1nc(NC(=O)N2CCC[C@H]2C(N)=O)sc1-c1ccnc(C(C)(C)C(F)(F)F)c1 [Alpelisib] (partner 2 µM),relative viability,[1]; first compound 0.2 µM,0.958
same,relative viability,[1]; first compound 0.6325 µM,1.04
same,relative viability,[1]; first compound 6.325 µM,0.963
same,relative viability,[1]; first compound 20 µM,0.374
same,relative viability,[2]; first compound 0.2 µM,0.595
same,relative viability,[2]; first compound 0.6325 µM,0.614
same,relative viability,[2]; first compound 2 µM,0.534
same,relative viability,[2]; first compound 6.325 µM,0.482
same,relative viability,[2]; first compound 20 µM,0.397
same,relative viability,[3]; first compound 0.2 µM,1.13
same,relative viability,[3]; first compound 0.6325 µM,0.99
same,relative viability,[3]; first compound 2 µM,1.21
same,relative viability,[3]; first compound 6.325 µM,1.01
same,relative viability,[3]; first compound 20 µM,0.445
same,relative viability,[4]; first compound 0.2 µM,0.902
same,relative viability,[4]; first compound 0.6325 µM,0.9
same,relative viability,[4]; first compound 2 µM,1.19
same,relative viability,[4]; first compound 6.325 µM,0.633
same,relative viability,[4]; first compound 20 µM,0.41
same,relative viability,[5]; first compound 0.2 µM,0.771
same,relative viability,[5]; first compound 0.6325 µM,0.737
same,relative viability,[5]; first compound 2 µM,0.836
same,relative viability,[5]; first compound 6.325 µM,0.74
same,relative viability,[5]; first compound 20 µM,0.834
same,relative viability,[6]; first compound 0.2 µM,0.989
same,relative viability,[6]; first compound 0.6325 µM,0.838
same,relative viability,[6]; first compound 2 µM,0.967
same,relative viability,[6]; first compound 6.325 µM,0.481
same,relative viability,[6]; first compound 20 µM,0.125
same,relative viability,[7]; first compound 0.2 µM,0.924
same,relative viability,[7]; first compound 0.6325 µM,0.91
same,relative viability,[7]; first compound 2 µM,0.934
same,relative viability,[7]; first compound 6.325 µM,0.575
same,relative viability,[7]; first compound 20 µM,0.615
same,relative viability,[8]; first compound 0.2 µM,1.02
same,relative viability,[8]; first compound 0.6325 µM,1.05
same,relative viability,[8]; first compound 2 µM,0.913
same,relative viability,[8]; first compound 6.325 µM,0.816
same,relative viability,[8]; first compound 20 µM,0.322
same,relative viability,[9]; first compound 0.2 µM,0.835
same,relative viability,[9]; first compound 0.6325 µM,0.838
same,relative viability,[9]; first compound 2 µM,0.577
same,relative viability,[9]; first compound 6.325 µM,0.498
same,relative viability,[9]; first compound 20 µM,0.137
same,relative viability,[10]; first compound 0.2 µM,0.718
same,relative viability,[10]; first compound 0.6325 µM,0.771
same,relative viability,[10]; first compound 2 µM,0.745
same,relative viability,[10]; first compound 6.325 µM,0.682
same,relative viability,[10]; first compound 20 µM,0.404
same,relative viability,[11]; first compound 0.2 µM,1.14
same,relative viability,[11]; first compound 0.6325 µM,1.36
same,relative viability,[11]; first compound 2 µM,1.24
same,relative viability,[11]; first compound 6.325 µM,0.997
same,relative viability,[11]; first compound 20 µM,0.973
same,relative viability,[12]; first compound 0.2 µM,0.927
same,relative viability,[12]; first compound 0.6325 µM,0.974
same,relative viability,[12]; first compound 2 µM,0.921
same,relative viability,[12]; first compound 6.325 µM,0.793
same,relative viability,[12]; first compound 20 µM,0.936
same,relative viability,[13]; first compound 0.2 µM,0.564
same,relative viability,[13]; first compound 0.6325 µM,0.594
same,relative viability,[13]; first compound 2 µM,0.526
same,relative viability,[13]; first compound 6.325 µM,0.368
same,relative viability,[13]; first compound 20 µM,0.328
same,relative viability,[14]; first compound 0.2 µM,0.43
same,relative viability,[14]; first compound 0.6325 µM,0.549
same,relative viability,[14]; first compound 2 µM,0.456
same,relative viability,[14]; first compound 6.325 µM,0.204
same,relative viability,[14]; first compound 20 µM,0.0234
same,relative viability,[15]; first compound 0.2 µM,0.95
same,relative viability,[15]; first compound 0.6325 µM,1.04
same,relative viability,[15]; first compound 2 µM,0.873
same,relative viability,[15]; first compound 6.325 µM,0.802
same,relative viability,[15]; first compound 20 µM,0.657
same,relative viability,[16]; first compound 0.2 µM,0.829
same,relative viability,[16]; first compound 0.6325 µM,0.881
same,relative viability,[16]; first compound 2 µM,0.721
same,relative viability,[16]; first compound 6.325 µM,0.383
same,relative viability,[16]; first compound 20 µM,0.274
same,relative viability,[17]; first compound 0.2 µM,1
same,relative viability,[17]; first compound 0.6325 µM,1.03
same,relative viability,[17]; first compound 2 µM,1.02
same,relative viability,[17]; first compound 6.325 µM,0.942
same,relative viability,[17]; first compound 20 µM,1.29
same,relative viability,[18]; first compound 0.2 µM,1.06
same,relative viability,[18]; first compound 0.6325 µM,1.03
same,relative viability,[18]; first compound 2 µM,1.02
same,relative viability,[18]; first compound 6.325 µM,0.884
same,relative viability,[18]; first compound 20 µM,0.716
same,relative viability,[19]; first compound 0.2 µM,0.782
same,relative viability,[19]; first compound 0.6325 µM,0.971
same,relative viability,[19]; first compound 2 µM,0.849
same,relative viability,[19]; first compound 6.325 µM,0.934
same,relative viability,[19]; first compound 20 µM,0.966
same,relative viability,[20]; first compound 0.2 µM,0.974
same,relative viability,[20]; first compound 0.6325 µM,1
same,relative viability,[20]; first compound 2 µM,0.83
same,relative viability,[20]; first compound 6.325 µM,0.827
same,relative viability,[20]; first compound 20 µM,1.09
same,relative viability,[21]; first compound 0.2 µM,0.488
same,relative viability,[21]; first compound 0.6325 µM,0.495
same,relative viability,[21]; first compound 2 µM,0.459
same,relative viability,[21]; first compound 6.325 µM,0.487
same,relative viability,[21]; first compound 20 µM,0.327
